Experimental data as given in ChEMBL document CHEMBL5729321, “Compound exhibiting enteropeptidase inhibitory activity” (2022).

Target: Enteropeptidase (Homo sapiens, UniProt P98073)
Experiment: Enteropeptidase Inhibition Assay: The inhibitory activity of the enteropeptidase inhibitor synthesized using the purified Recombinant Human Enteropeptidase and the substrate Acetyl-Asp-Asp-Asp-Asp-Lys-AFC (BioVision) was measured. 7.2 ng/mL of Enteropeptidase diluted with a buffer (20 mM Tris, 50 mM NaCl, pH 7.5) in a 96 well plate (Costar), 30 μM of Acetyl-Asp-Asp-Asp-Asp-Lys-AFC, several concentrations of Enteropeptidase inhibitors (1% DMSO concentration) were dispensed such that a final volume was 100 μL, and then the enzyme reaction was carried out at 30° C. for 1 hour. At this time, 1% DMSO, a substrate and Enteropeptidase instead of the compound were dispensed onto positive control wells, and 1% DMSO and a substrate were dispensed onto negative control wells. The enzyme reaction was started using an excitation wavelength of 380 nm and an emission wavelength of 500 nm in a fluorescence spectrometer, and then the rate of increase in fluorescence (milli-units per min) between 20 and 60 minutes was measured.

Enteropeptidase, sequence (P98073 2-784 limits assumed): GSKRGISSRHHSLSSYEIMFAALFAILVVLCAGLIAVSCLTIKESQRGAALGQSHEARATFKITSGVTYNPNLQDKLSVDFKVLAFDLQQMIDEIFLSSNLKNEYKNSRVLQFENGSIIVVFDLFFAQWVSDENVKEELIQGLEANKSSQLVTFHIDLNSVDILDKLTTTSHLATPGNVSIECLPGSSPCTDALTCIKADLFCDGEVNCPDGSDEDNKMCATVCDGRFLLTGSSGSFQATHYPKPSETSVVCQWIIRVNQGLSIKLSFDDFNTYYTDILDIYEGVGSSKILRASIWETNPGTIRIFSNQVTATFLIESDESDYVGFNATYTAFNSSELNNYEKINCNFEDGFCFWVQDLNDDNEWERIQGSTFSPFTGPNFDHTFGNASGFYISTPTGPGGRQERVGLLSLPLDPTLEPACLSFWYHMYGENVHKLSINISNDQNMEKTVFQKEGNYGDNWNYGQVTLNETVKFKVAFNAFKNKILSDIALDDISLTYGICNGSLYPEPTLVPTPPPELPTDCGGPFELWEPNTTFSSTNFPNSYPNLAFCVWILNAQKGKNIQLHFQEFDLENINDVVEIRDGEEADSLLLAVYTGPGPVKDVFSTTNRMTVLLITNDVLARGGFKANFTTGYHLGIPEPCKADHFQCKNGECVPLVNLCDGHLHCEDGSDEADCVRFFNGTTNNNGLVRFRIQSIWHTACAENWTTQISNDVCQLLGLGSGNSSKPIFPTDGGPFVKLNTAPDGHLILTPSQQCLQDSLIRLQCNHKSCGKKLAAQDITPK
Enteropeptidase, sequence (P98073 785-1019 limits assumed): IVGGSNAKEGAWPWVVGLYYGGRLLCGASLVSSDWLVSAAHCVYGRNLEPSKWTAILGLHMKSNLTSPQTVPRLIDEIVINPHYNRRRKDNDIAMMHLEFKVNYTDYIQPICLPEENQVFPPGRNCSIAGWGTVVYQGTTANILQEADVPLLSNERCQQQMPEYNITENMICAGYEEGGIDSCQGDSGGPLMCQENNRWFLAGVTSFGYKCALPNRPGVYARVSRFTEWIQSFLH

| Compound | Ki |
| --- | --- |
| N=C(N)c1ccc(OC(=O)c2cnc(N3CCC(C(=O)N[C@@H](CC(=O)OCc4ccccc4)C(=O)OCc4ccccc4)CC3)s2)c(F)c1 | 8.2 nM |
| CCN(CCC(=O)O)c1ncc(C(=O)Oc2ccc(C(=N)N)cc2F)s1 | 0.68 nM |
